Key:
cystic fibrosis patient [1] = assay: Number of lung infections (superinfections) per year in patients with cystic fibrosis treated with tritoqualine; format: in vivo, human
Experimental: (§1) This level of ventilatory flow signals a severe respiratory impairment. This patient also had 15 lung infections per year prior to treatment. After 6 months of treatment with tritoqualine at a dose of 200 mg/day, the ventilatory flows were again measured. At this second visit, the FEV1 parameter was measured at 0.50 L/s. […] During the third visit, months after the first visit, the flows were again measured.
Over 12 months, the number of superinfections decreased from 15 to only 4 infections.
(§2) This patient had had 8 lung infections per year prior to treatment. After 6 months of treatment at the daily dose of 400 mg of tritoqualine, the FEV1 parameter was measured again during a second consultation. The FEV1 parameter measured during this consultation went from 0.45 L/s to 0.50 L/s, or an improvement of 11.11% of the ventilatory flows.
During the 12-month treatment with tritoqualine (400 mg daily), the patient benefited from a significant reduction in pulmonary infections, from 8 initially to only 3 infections after 12 months of treatment.
(§3) Before therapy with tritoqualine, the FEV1 of the patient was measured at 0.70 L/s, or 63.64% of the normal expected value (based on age, sex, and size). This patient had had 12 pulmonary infections per year before the treatment. After a 6-month treatment with a daily dose of 300 mg of tritoqualine, the FEV1 parameter was measured at their second consultation at 1.0 L/s. This represents an improvement of 42.86% over the initial visit. (100*([…])/0.70). After 12 months of treatment, the FEV1 parameter measured during the third consultation was 1.20 L/s or 71.43% improvement compared to the initial visit. (100*(1.20-0.70)/0.70).
These decreased from 12 to 3 infections in one single year.

cystic fibrosis patient [2] = assay: FEV1 (Forced Expiratory Volume in 1 second) in patients with cystic fibrosis treated with tritoqualine; format: in vivo, human
Experimental: During the initial consultation, a treatment based on tritoqualine was started at a daily dose of 200 mg.
Before therapy with tritoqualine, the FEV1 (Forced Expiratory Volume in 1 second) of this young patient was 0.39 L/s or 55.71% of the normal expected value (based on age, sex, and size). The flow rate was measured with a Jaeger® MasterScreen® Body plethysmography apparatus.
as §1
Before therapy with tritoqualine, the FEV1 of the patient was measured at 0.45 L/s or only 69.23% of the normal expected value (based on age, sex, and size).
as §2
A child with cystic fibrosis was treated during their first consultation with a dose of 300 mg of tritoqualine.
as §3

histamine H4 receptor = molecular target: T1, histamine H4 receptor (Homo sapiens, UniProt Q9H3N8); assay: Inhibition of proliferation of CFU rich in H4 receptor (FIG. 4); format: cell-based; settings: for activity on CFU proliferation when using an anti H4: FIG. 4, with an anti H4
T1 construct: endogenous in cells; host or cells: CFU (colony-forming units) rich in H4 receptor

[3] = white powder; degrades into cotarnine and phthalic acid; cited from earlier work
histidine decarboxylase = molecular target: T2, histidine decarboxylase (Homo sapiens, UniProt P19113); settings: background statement; cited from earlier work
T2 sequence (P19113 1-662): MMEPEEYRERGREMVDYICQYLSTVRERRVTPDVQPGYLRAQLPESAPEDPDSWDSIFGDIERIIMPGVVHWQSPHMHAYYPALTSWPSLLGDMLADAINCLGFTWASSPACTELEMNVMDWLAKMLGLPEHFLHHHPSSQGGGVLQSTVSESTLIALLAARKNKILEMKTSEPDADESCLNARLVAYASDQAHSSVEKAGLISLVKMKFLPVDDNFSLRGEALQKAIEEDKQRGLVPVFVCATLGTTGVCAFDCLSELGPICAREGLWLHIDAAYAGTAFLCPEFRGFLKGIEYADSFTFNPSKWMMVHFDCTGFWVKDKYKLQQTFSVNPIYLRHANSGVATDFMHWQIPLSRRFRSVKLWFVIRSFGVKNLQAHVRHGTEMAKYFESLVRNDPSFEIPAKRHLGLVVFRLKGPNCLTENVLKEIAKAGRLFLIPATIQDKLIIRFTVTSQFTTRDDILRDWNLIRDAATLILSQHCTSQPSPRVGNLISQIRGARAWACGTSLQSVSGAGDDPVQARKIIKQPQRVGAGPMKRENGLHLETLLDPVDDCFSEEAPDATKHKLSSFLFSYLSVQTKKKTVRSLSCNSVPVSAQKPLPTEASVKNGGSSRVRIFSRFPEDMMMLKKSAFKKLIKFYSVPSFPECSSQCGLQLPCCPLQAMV

cystic fibrosis patients = settings: background statement; cited from earlier work

T1 sequence (Q9H3N8 whole entry, species assumed): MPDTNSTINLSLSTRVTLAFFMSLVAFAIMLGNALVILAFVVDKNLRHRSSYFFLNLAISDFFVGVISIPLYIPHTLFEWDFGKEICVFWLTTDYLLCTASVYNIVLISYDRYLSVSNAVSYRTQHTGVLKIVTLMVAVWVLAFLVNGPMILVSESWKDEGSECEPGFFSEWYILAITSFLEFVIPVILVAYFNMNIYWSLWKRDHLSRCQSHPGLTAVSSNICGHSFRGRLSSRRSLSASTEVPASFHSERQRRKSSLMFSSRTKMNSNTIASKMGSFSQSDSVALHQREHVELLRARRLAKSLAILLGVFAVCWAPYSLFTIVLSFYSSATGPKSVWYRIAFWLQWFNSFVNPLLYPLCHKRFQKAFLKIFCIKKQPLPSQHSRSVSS

With `CCOc1c(N)c2c(c(OCC)c1OCC)C(C1c3c(cc4c(c3OC)OCO4)CCN1C)OC2=O` (centres unmarked) [tritoqualine, 7-Amino-4,5,6-triethoxy-3-(5,6,7,8-tetrahydro-4-methoxy-6-methyl-1,3-dioxolo[4,5-g]isoquinolin-5-yl) phthalide] the number of superinfections (cystic fibrosis patient [1]; Example 1: child, 200 mg/day, over 12 months, 15 per year prior to treatment) was 4 infections, the “reduction factor of number of infections” value (cystic fibrosis patient [1]; Example 1: summary statement) was “divided by three” and the “number of pulmonary infections” value (cystic fibrosis patient [1]; Example 2: adult, 400 mg/day, after 12 months, 8 initially) was 3 infections. For the same compound, the “number of pulmonary infections” value (cystic fibrosis patient [1]; Example 3: child, 300 mg/day, in one year, 12 before treatment) was 3 infections, the “increase of FEV1 compared to initial flows” value (cystic fibrosis patient [2]; Example 1: child, 200 mg/day, after 6 months) was 28.2% and the FEV1 (cystic fibrosis patient [2]; Example 1: child, 200 mg/day, after 6 months (second visit), before therapy 0.39 L/s) was 0.50 L/s. The “improvement of FEV1 compared to initial rates” value (cystic fibrosis patient [2]; Example 1: child, 200 mg/day, third visit) was 58.7%, the FEV1 (cystic fibrosis patient [2]; Example 1: child, 200 mg/day, third visit, before therapy 0.39 L/s) was 0.62 L/s and the “increase of ventilatory flows” value (cystic fibrosis patient [2]; Example 1: summary statement) was “more than 50%”. For the same compound, the “improvement of ventilatory flows (FEV1)” value (cystic fibrosis patient [2]; Example 2: adult, 400 mg/day, after 6 months vs baseline) was 11.11%, the FEV1 (cystic fibrosis patient [2]; Example 2: adult, 400 mg/day, after 6 months, before therapy 0.45 L/s) was 0.50 L/s and the “increase in FEV1 compared to the initial visit” value (cystic fibrosis patient [2]; Example 2: adult, 400 mg/day, after 12 months) was 28.89%. The FEV1 (cystic fibrosis patient [2]; Example 2: adult, 400 mg/day, after 12 months, before therapy 0.45 L/s) was 0.58 L/s, the “improvement of FEV1 over the initial visit” value (cystic fibrosis patient [2]; Example 3: child, 300 mg/day, after 6 months) was 42.86% and the FEV1 (cystic fibrosis patient [2]; Example 3: child, 300 mg/day, after 6 months, before therapy 0.70 L/s) was 1.0 L/s. The “improvement of FEV1 compared to the initial visit” value (cystic fibrosis patient [2]; Example 3: child, 300 mg/day, after 12 months) was 71.43%, the FEV1 (cystic fibrosis patient [2]; Example 3: child, 300 mg/day, after 12 months, before therapy 0.70 L/s) was 1.20 L/s and the “proliferation of CFU rich in H4 receptor” value (histamine H4 receptor; FIG. 4) was “capable of inhibiting the proliferation”. The “activity on CFU proliferation when using an anti H4” value (histamine H4 receptor) was “greatly reduced”, the sensitivity to light [3] was “very sensitive to light” and the “inhibitory action on histidine decarboxylase” value (histidine decarboxylase) was “very low”.

For `CC(C)(C)c1cc(C(C)(C)C)c(NC(=O)c2c[nH]c3ccccc3c2=O)cc1O` [Kalydeco], the “improvement in FEV1” value (cystic fibrosis patients) is listed as 10%.

For `NC(=NCc1ccc(Cl)cc1)SCCCc1cnc[nH]1` [Clobenpropit], the “activity on CFU proliferation when using an anti H4” value (histamine H4 receptor) was “greatly reduced”.

Source: patent US20150133666A1, “TRITOQUALINE FOR USE IN THE TREATMENT OF CYSTIC FIBROSIS” (priority 2012, published 2015)
